Test results reported in patent US11912693B2, “Compounds for modulating S1P1 activity and methods of using the same” (TREVENA, INC., priority 2017, dated 2024).

Columns and labels:
[1] = target: T1, human sphingosine-1-phosphate receptor 1 (S1P1) (Homo sapiens (Human), UniProt P21453); test: Inhibition of cAMP production (HTRF cAMP HiRange), S1P1 CHO-K1 cells; type: cell-based; settings: for Emax: CHO-K1, efficacy (SPAN) normalized to fingolimod, read-out: hS1P1 cAMP SPAN; for hS1P1 cAMP pEC50: inhibition of cAMP production, S1P1 CHO-K1 cells
How it was run: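 CHO-K1 cells stably co-expressing human S1P1 (C-terminal Prolink tag) and EA-β-arrestin2 were grown in AssayComplete Media 6 at 37° C. and 5% CO2, plated, and incubated overnight. Agonist-driven inhibition of intracellular cAMP was read by TR-FRET with the HTRF cAMP HiRange kit on a PheraStar reader. Potency is pEC50, and efficacy (SPAN) is normalized to fingolimod.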
Target sequence in this assay (P21453 whole entry, looked up): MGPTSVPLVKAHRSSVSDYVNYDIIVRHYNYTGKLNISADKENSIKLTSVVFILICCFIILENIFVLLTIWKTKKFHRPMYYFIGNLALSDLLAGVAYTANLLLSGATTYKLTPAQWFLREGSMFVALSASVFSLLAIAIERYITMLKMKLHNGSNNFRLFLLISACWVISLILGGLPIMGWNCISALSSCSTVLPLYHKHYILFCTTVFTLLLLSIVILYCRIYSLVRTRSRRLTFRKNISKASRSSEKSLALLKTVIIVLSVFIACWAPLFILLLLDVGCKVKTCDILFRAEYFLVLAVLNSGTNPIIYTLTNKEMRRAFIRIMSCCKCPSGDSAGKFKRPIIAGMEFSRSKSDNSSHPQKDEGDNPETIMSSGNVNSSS

[2] = target: T1, human sphingosine-1-phosphate receptor 1 (S1P1); test: β-Arrestin2 recruitment assay (PathHunter), S1P1 CHO-K1 cells; type: cell-based; settings: for Emax: CHO-K1, efficacy (SPAN) normalized to fingolimod, read-out: hS1P1 B-arrestin2 SPAN; for hS1P1 B-arrestin2 pEC50: β-arrestin2 recruitment, S1P1 CHO-K1 cells
How it was run: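 Enzyme-fragment complementation read-out: agonist-driven β-arrestin2 binding to ProLink-tagged human S1P1 in stable CHO-K1 cells restores β-galactosidase, measured 1 h at room temperature after a 60 min 37° C. compound incubation. Potency as pEC50, efficacy relative to fingolimod (SPAN).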
Target sequence in this assay (P21453 whole entry, looked up): as above
Target sequence in this assay (P32121 whole entry partner, looked up): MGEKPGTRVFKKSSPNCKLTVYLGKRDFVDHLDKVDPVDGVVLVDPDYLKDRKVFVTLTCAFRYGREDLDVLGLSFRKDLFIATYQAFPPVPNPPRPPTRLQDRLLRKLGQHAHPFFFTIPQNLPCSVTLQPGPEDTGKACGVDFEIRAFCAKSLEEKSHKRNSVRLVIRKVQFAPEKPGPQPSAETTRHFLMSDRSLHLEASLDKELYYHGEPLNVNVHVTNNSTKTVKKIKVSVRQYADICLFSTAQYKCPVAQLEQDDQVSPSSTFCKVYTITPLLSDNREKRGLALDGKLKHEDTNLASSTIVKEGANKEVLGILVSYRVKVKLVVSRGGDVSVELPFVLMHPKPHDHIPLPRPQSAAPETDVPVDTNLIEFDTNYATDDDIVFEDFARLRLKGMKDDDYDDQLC

[3] = tested on: paclitaxel induced peripheral neuropathy; test: Reversal of allodynia induced by paclitaxel in mice (s.c. or p.o., von Frey frequency method); type: in vivo, c57bl/6 mice; settings: Mus musculus; for inhibition in vivo at 3 mg/kg: po, 1 h, 3 mg/kg p.o., tested 60 min after dosing, read-out: Screen @ 3 mg/kg po (% MPE); for inhibition in vivo at 1 mg/kg: sc, 0.5 h, 1 mg/kg s.c., tested 30 min after dosing, read-out: Screen @ 1 mg/kg sc (% MPE)
Experimental: Compounds were tested for efficacy in mouse models of chemotherapy induced peripheral neuropathy. […] For these studies […]/6 mice are habituated to the test environment and baseline measurements of pain sensitivity are assessed. To determine mechanical responses, the threshold for responses to punctate mechanical stimuli (mechanical hyperalgesia) was tested according to the frequency method. In brief, the plantar surface of the animal hindpaw was stimulated with a single von Frey monofilament (0.4 g) for approximately 1-2 seconds. If there was a withdrawal response, it was recorded as a positive response. A response was defined as a lifting or shaking of the paw upon stimulation. This was repeated ten times for each mouse. The final measurement for each mouse is the % non-response to stimulation for the ten trials. The % non-response to stimulation is converted to a % MPE. For paclitaxel induced peripheral neuropathy, a series of injections of PAC (6 mg/kg, i.p.) on days 1, 3, 5 and 7 is used to induce peripheral neuropathy. After approximately 14 days from the initiation of PAC injections, animals are re-assessed for mechanical sensitivity. […] On test day animals are dosed with compounds either subcutaneously or orally and tested for mechanical response by the frequency method either 30 min (s.c.) or 60 min (p.o.) after drug administration. Data is presented as a % MPE. For oxaliplatin induced peripheral neuropathy, a series of injections of OXA (4 mg/kg, i.p.) on days 1-5 is used to induce peripheral neuropathy. After approximately 14 days from the initiation of PAC injections, animals are re-assessed for mechanical sensitivity. […] On test day animals are dosed with compounds subcutaneously and tested for mechanical response by the frequency method 30 min after drug administration. Data is presented as a % MPE. One or more of the compounds show reversal of chemotherapeutic induced peripheral neuropathy.

Structure (SMILES) | Emax [1] [%] | hS1P1 cAMP pEC50 [1] | Emax [2] [%] | hS1P1 B-arrestin2 pEC50 [2] | inhibition in vivo at 3 mg/kg [3] [%] | inhibition in vivo at 1 mg/kg [3] [%]
N#Cc1cc(-c2nnc(-c3ccc4[nH]cnc4c3)o2)ccc1NC(CF)CF [Compound 600, 5-[5-(1H-1,3-benzodiazol-5-yl)-1,3,4-oxadiazol-2-yl]-2-[(1,3-difluoropropan-2-yl)amino]benzonitrile] | > 75 | >6.5 | > 75 | >5 | < 50 | 
CC(C)Nc1ccc(-c2nnc(-c3ccc4oc(=O)[nH]c4c3)o2)cc1C#N [Compound 637, 5-[5-(2-oxo-2,3-dihydro-1,3-benzoxazol-5-yl)-1,3,4-oxadiazol-2-yl]-2-[(propan-2-yl)amino]benzonitrile] |  | >6.5 |  | >5 | > 50 | 
Cc1ccccc1-c1noc(-c2ccc3c(c2)nnn3C2CCC2)n1 [Compound 306, 1-cyclobutyl-5-[3-(2-methylphenyl)-1,2,4-oxadiazol-5-yl]-1H-1,2,3-benzotriazole] |  | >6.5 |  | >5 |  | < 50
CCC1(CC)CC(=O)c2cc(-c3nc(-c4ccc5c(c4)nnn5C(C)C)no3)ccc2O1 [Compound 305, 2,2-diethyl-6-(3-(1-isopropyl-1H-benzo[d][1,2,3]triazol-5-yl)-1,2,4-oxadiazol-5-yl)chroman-4-one] |  | <6.5 |  | <5 |  | > 50
CCC1(CC)CC(=O)c2cc(-c3nc(-c4cnccc4C(F)(F)F)no3)ccc2O1 [Compound 558, 2,2-diethyl-6-(3-(4-(trifluoromethyl)pyridin-3-yl)-1,2,4-oxadiazol-5-yl)chroman-4-one] |  | >6.5 |  | >5 | > 50 | 
CCC1(CC)CC(=O)c2cc(-c3nc(-c4cccnc4C(F)(F)F)no3)ccc2O1 [Compound 562, 2,2-diethyl-6-(3-(2-(trifluoromethyl)pyridin-3-yl)-1,2,4-oxadiazol-5-yl)chroman-4-one] |  | >6.5 |  | >5 | > 50 | 
CC(C)n1nnc2cc(-c3noc(-c4ccccc4C(F)(F)F)n3)ccc21 [Compound 33, 3-(1-isopropylbenzotriazol-5-yl)-5-[2-(trifluoromethyl)phenyl]-1,2,4-oxadiazole] |  | >6.5 |  | >5 |  | < 50
CC(C)Nc1ccc(-c2nc(-c3ccc4c(c3)C(=O)NCC4)no2)cc1C#N [Compound 514, 2-(isopropylamino)-5-(3-(1-oxo-1,2,3,4-tetrahydroisoquinolin-7-yl)-1,2,4-oxadiazol-5-yl)benzonitrile] |  | >6.5 |  | >5 | > 50 | 
CCC1(CC)CC(=O)c2cc(-c3nc(-c4ccc(NS(C)(=O)=O)cc4OC)no3)ccc2O1 [Compound 568, N-{4-[5-(2,2-diethyl-4-oxo-3,4-dihydro-2H-1-benzopyran-6-yl)-1,2,4-oxadiazol-3-yl]-3-methoxyphenyl}methanesulfonamide] |  | >6.5 |  | >5 | < 50 | 
CCC1(CC)CC(=O)c2cc(-c3nc(-c4cncc(N)c4)no3)ccc2O1 [Compound 502, 6-(3-(5-aminopyridin-3-yl)-1,2,4-oxadiazol-5-yl)-2,2-diethylchroman-4-one] |  | >6.5 |  | >5 | > 50 | 
CC(C)n1nnc2cc(-c3noc(-c4cccc5c4CCC5O)n3)ccc21 (centres unmarked) [Compound 636, 4-{3-[1-(propan-2-yl)-1H-1,2,3-benzotriazol-5-yl]-1,2,4-oxadiazol-5-yl}-2,3-dihydro-1H-inden-1-ol] |  | >6.5 |  | >5 | < 50 | 
N#Cc1cc(-c2nnc(-c3ccc4[nH]cnc4c3)o2)ccc1NCCF [Compound 358, 5-[5-(1H-1,3-benzodiazol-5-yl)-1,3,4-oxadiazol-2-yl]-2-[(2-fluoroethyl)amino]benzonitrile] | > 75 | >6.5 | > 75 | >5 | > 50 | 

The next lines start with results.

Emax [1] [%] | hS1P1 cAMP pEC50 [1] | Emax [2] [%] | hS1P1 B-arrestin2 pEC50 [2] | Structure (SMILES) | inhibition in vivo at 3 mg/kg [3] [%] | inhibition in vivo at 1 mg/kg [3] [%]
> 75 | >6.5 | > 75 | >5 | COc1ncccc1-c1nc(-c2ccc3c(c2)nnn3C(C)C)no1 [Compound 607, 3-(1-isopropyl-1H-benzo[d][1,2,3]triazol-5-yl)-5-(2-methoxypyridin-3-yl)-1,2,4-oxadiazole] | > 50 | 
> 75 | >6.5 | > 75 | >5 | N#Cc1cc(-c2nc(-c3ccc4c(c3)CC(=O)N4)no2)ccc1NCC1CC1 [Compound 210, 2-((cyclopropylmethyl)amino)-5-(3-(2-oxoindolin-5-yl)-1,2,4-oxadiazol-5-yl)benzonitrile] |  | < 50
 | >6.5 |  | >5 | Cc1nc2cc(-c3nnc(-c4ccc(NC(C)C)c(C#N)c4)o3)ccc2[nH]1 [Compound 560, 5-[5-(2-methyl-1H-1,3-benzodiazol-5-yl)-1,3,4-oxadiazol-2-yl]-2-[(propan-2-yl)amino]benzonitrile] | > 50 | 
> 75 | >6.5 | > 75 | >5 | COc1cnccc1-c1nc(-c2ccc3c(c2)nnn3C(C)C)no1 [Compound 606, 3-(1-isopropyl-1H-benzo[d][1,2,3]triazol-5-yl)-5-(3-methoxypyridin-4-yl)-1,2,4-oxadiazole] | > 50 | 
 | >6.5 |  | >5 | Cn1cnc2ccc(-c3nnc(-c4ccc(NCC(F)F)c(C#N)c4)o3)cc21 [Compound 580, 2-[(2,2-difluoroethyl)amino]-5-[5-(1-methyl-1H-1,3-benzodiazol-6-yl)-1,3,4-oxadiazol-2-yl]benzonitrile] | > 50 | 
> 75 | >6.5 | > 75 | >5 | N#Cc1cc(-c2nnc(-c3ccc4[nH]cnc4c3)o2)ccc1NCC(F)F [Compound 359, 5-[5-(1H-1,3-benzodiazol-5-yl)-1,3,4-oxadiazol-2-yl]-2-[(2,2-difluoroethyl)amino]benzonitrile] | > 50 | 
 | >6.5 |  | >5 | CCC1(CC)CC(=O)c2cc(-c3nc(-c4ccnc(N)c4)no3)ccc2O1 [Compound 513, 6-(3-(2-aminopyridin-4-yl)-1,2,4-oxadiazol-5-yl)-2,2-diethylchroman-4-one] | < 50 | 
> 75 | >6.5 | > 75 | >5 | Cc1cn(C)nc1-c1noc(-c2ccc3c(c2)nnn3C(C)C)n1 [Compound 519, 5-[3-(1,4-dimethyl-1H-pyrazol-3-yl)-1,2,4-oxadiazol-5-yl]-1-(propan-2-yl)-1H-1,2,3-benzotriazole] | < 50 | 
 | >6.5 |  | >5 | CC(C)Nc1ccc(-c2nnc(-c3cccc4[nH]cnc34)o2)cc1C#N [Compound 585, 5-[5-(1H-1,3-benzodiazol-4-yl)-1,3,4-oxadiazol-2-yl]-2-[(propan-2-yl)amino]benzonitrile] | < 50 | 
 | >6.5 |  | >5 | CCC1(CC)CC(=O)c2cc(-c3nc(-c4cccnc4F)no3)ccc2O1 [Compound 547, 2,2-diethyl-6-(3-(2-fluoropyridin-3-yl)-1,2,4-oxadiazol-5-yl)chroman-4-one] | > 50 | 
